How the values were obtained:
[1] = tested on: SK-OV-3; experiment: Growth inhibition of human SK-OV-3 after 48 hrs by SRB assay; type: functional; conditions: SK-OV-3, 48 h
[2] = Inhibition of calf brain tubulin polymerization; parameters: species or system Bos taurus
[3] = tested on: NCI-H460; experiment: Growth inhibition of human NCI-H460 after 48 hrs by SRB assay; type: functional; conditions: NCI-H460, 48 h
[4] = tested on: DU-145; experiment: Growth inhibition of human DU145 after 48 hrs by SRB assay; type: functional; conditions: DU-145, 48 h

SMILES | GI50 [1] | IC50 [2] | GI50 [3] | GI50 [4]
COc1ccc2c(c1)CCCC(c1cc(OC)c(OC)c(OC)c1)=C2 | 440 nM | > 40000 nM | 470 nM | 550 nM
COc1ccc(C(=O)C2=CCCCc3c2cc(OC)c(OC)c3OC)cc1O |  | > 40000 nM | > 10000 nM | > 10000 nM
COc1ccc2c(c1O)CCCC=C2c1cc(OC)c(OC)c(OC)c1 | < 0.03 nM | 1700 nM | 0.028 nM | 0.0032 nM
COc1ccc(C(=O)C2=CCCc3c2cc(OC)c(OC)c3OC)cc1O |  | 24000 nM | 6000 nM | 3100 nM
COc1ccc(C(=O)C2=CCCCc3c2cc(OC)c(OC)c3OC)c(O)c1O |  | > 40000 nM | > 10000 nM | > 10000 nM
COc1ccc(CC2CCCCc3c2cc(OC)c(OC)c3OC)c(O)c1O (stereo not given) |  | 7400 nM | > 10000 nM | > 10000 nM
COc1ccc2c(c1O)CCCC(c1cc(OC)c(OC)c(OC)c1)=C2 | 270 nM | > 40000 nM | 1200 nM | 440 nM
COc1ccc(/C=C\c2cc(OC)c(OC)c(OC)c2)cc1O [COMBRETASTATIN A4] | 0.13 nM |  | 2 nM | 2 nM
COc1ccc(C(=O)C2=CCCc3c2cc(OC)c(OC)c3OC)c(O)c1O | 1400 nM | > 40000 nM | 2800 nM | 3400 nM
COc1ccc2c(c1)CCCC=C2c1cc(OC)c(OC)c(OC)c1 | 52 nM | 1400 nM | 51 nM | 27 nM
COc1ccc(/C=C\c2cc(OC)c(OC)c(OC)c2)c(O)c1O [COMBRETASTATIN A-1] |  |  | 2200 nM | 510 nM
COc1cc2c(cc1O)C(=O)C1c3cc(OC)c(OC)c(OC)c3CCC21 (stereo not given) |  | > 40000 nM | > 10000 nM | > 10000 nM

From ChEMBL document CHEMBL1140060, “Design, synthesis and biological evaluation of dihydronaphthalene and benzosuberene analogs of the combretastatins as inhibitors of tubulin polymerization in cancer chemotherapy” (Bioorg Med Chem, 2008)
